Like-named read-outs stand apart in the source and are kept apart here.
Experiments:
Assay type in all cases: biochemical
[1] = target: T1, α-mannosidase from Jack bean (α-Manase) (Canavalia ensiformis, UniProt C0HJB3); experiment: Commercial glycosidase inhibition: α-mannosidase from Jack bean (α-Manase); settings: mean ± SD, three determinations; competitive; n.i. = no inhibition detected at 1 mM
T1 construct: purchased
T1 sequence (C0HJB3 1-981): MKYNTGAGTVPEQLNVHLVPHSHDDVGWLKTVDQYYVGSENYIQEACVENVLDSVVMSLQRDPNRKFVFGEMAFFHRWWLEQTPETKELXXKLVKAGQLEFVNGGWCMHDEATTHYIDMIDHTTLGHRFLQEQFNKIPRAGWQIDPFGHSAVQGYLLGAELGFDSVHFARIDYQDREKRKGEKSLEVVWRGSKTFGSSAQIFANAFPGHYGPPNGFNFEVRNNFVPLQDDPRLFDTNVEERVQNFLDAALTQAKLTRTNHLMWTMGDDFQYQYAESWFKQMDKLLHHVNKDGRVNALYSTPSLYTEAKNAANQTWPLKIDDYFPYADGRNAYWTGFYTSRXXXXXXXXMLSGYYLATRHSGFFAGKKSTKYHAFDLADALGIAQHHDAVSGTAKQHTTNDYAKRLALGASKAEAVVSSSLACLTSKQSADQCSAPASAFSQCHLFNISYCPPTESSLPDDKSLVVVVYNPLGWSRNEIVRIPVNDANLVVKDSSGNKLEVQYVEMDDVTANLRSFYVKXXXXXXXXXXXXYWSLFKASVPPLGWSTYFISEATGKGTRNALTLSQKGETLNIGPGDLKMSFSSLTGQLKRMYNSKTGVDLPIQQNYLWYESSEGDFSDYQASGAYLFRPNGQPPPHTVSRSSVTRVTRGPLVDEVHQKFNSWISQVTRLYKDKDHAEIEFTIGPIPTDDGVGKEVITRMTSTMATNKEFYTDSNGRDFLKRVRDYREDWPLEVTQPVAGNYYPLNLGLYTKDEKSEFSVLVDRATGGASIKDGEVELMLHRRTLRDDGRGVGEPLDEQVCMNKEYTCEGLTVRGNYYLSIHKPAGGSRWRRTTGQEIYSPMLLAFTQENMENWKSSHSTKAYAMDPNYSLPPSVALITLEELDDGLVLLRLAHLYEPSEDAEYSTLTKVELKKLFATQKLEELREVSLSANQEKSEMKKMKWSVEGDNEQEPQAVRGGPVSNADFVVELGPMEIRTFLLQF
From the text: (§1) We first evaluated the inhibitory properties of the new nonreducing mono- and bicyclic sp^2-iminosugars 4–15 against a panel of commercial glycosidases that included the α-glucosidases maltase (yeast maltase; α-Glcase1) and isomaltase (α-Glcase2) from Saccharomyces cerevisiae and amyloglucosidase (α-Glcase3) from Aspergillus niger, the β-glucosidases from almonds (β-Glcase1) and bovine liver (β-Glcase2), the α-galactosidase from green coffee beans (α-Galase), the β-galactosidase from Escherichia coli (β-Galase), and the α-mannosidase from Jack bean (α-Manase).
(§2) Inhibition constant (Ki) values were determined by spectrophotometrically measuring the residual hydrolytic activities of the glycosidases against the respective o- (for β-galactosidase from E. coli) or p-nitrophenyl α- or β-D-glycopyranoside (for other glycosidases) in the presence of the iminosugars. Each assay was performed in phosphate buffer or phosphate-citrate buffer (for α- or β-mannosidase and amyloglucosidase) at the optimal pH for the enzymes. The reactions were initiated by addition of the enzyme to a solution of the substrate in the absence or presence of various inhibitor concentrations. The mixture was incubated for 10–30 min at 37 °C or 55 °C (for amyloglucosidase) and the reaction was quenched by addition of 1 M Na2CO3. Reaction times were appropriate to obtain 10–20% conversion of the substrate in order to achieve linear rates. The absorbance of the resulting mixture was determined at 405 nm. Approximate value of Ki was determined from the slope of Dixon plots using a fixed concentration of substrate (around the Km value for the different glycosidases) and various concentrations of inhibitor. Full Ki determinations and enzyme inhibition mode were determined from the slope of Lineweaver–Burk plots and double reciprocal analysis.

[2] = target: β-glucosidase from almonds (β-Glcase1); experiment: Commercial glycosidase inhibition: β-glucosidase from almonds (β-Glcase1); settings: mean ± SD, three determinations; competitive; n.i. = no inhibition detected at 1 mM
From the text: as §1, §2

[3] = target: T2, amyloglucosidase (α-Glcase3) (Aspergillus niger, UniProt P69328); experiment: Commercial glycosidase inhibition: amyloglucosidase (α-Glcase3); settings: mean ± SD, three determinations; competitive; n.i. = no inhibition detected at 1 mM
T2 construct: purchased
From the text: as §1, §2

[4] = target: T3, β-galactosidase (β-Galase) (Escherichia coli, UniProt P00722); experiment: Commercial glycosidase inhibition: β-galactosidase from E. coli (β-Galase); settings: mean ± SD, three determinations; competitive; n.i. = no inhibition detected at 1 mM
T3 construct: purchased
From the text: as §1, §2

[5] = target: T4, α-glucosidase maltase (yeast maltase; α-Glcase1) (Saccharomyces cerevisiae, UniProt P53341); experiment: Commercial glycosidase inhibition: maltase (yeast maltase; α-Glcase1); settings: three determinations, competitive, n.i. = no inhibition detected at 1 mM
T4 construct: purchased
From the text: as §1, §2

[6] = target: T5, α-galactosidase from green coffee beans (α-Galase) (Coffea arabica, UniProt Q42656); experiment: Commercial glycosidase inhibition: α-galactosidase from green coffee beans (α-Galase); settings: mean ± SD, three determinations; competitive; n.i. = no inhibition detected at 1 mM
T5 construct: purchased
From the text: as §1, §2

isomaltase (α-Glcase2) = target: T6, isomaltase (α-Glcase2) (Saccharomyces cerevisiae, UniProt P53051); experiment: Commercial glycosidase inhibition: isomaltase (α-Glcase2)
T6 construct: purchased
From the text: as §1, §2

[7] = mean ± SD, three determinations, competitive, n.i. = no inhibition detected at 1 mM
[8] = Dixon or Lineweaver-Burk plot, read-out: Ki against isomaltase (supplement figure legends)
[9] = mean ± SD, three determinations, competitive, n.i. = no inhibition detected at 1 mM, read-out: Ki α-Glcase2

T5 sequence (Q42656 16-378): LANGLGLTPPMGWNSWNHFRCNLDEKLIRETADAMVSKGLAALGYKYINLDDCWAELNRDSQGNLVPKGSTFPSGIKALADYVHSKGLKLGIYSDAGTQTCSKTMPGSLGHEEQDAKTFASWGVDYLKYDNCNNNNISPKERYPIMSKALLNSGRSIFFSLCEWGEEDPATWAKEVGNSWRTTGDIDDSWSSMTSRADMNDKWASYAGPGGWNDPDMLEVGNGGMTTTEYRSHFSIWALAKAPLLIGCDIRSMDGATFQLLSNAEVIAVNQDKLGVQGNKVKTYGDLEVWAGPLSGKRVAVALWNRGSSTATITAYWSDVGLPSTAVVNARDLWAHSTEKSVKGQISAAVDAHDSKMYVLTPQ
T6 sequence (P53051 whole entry): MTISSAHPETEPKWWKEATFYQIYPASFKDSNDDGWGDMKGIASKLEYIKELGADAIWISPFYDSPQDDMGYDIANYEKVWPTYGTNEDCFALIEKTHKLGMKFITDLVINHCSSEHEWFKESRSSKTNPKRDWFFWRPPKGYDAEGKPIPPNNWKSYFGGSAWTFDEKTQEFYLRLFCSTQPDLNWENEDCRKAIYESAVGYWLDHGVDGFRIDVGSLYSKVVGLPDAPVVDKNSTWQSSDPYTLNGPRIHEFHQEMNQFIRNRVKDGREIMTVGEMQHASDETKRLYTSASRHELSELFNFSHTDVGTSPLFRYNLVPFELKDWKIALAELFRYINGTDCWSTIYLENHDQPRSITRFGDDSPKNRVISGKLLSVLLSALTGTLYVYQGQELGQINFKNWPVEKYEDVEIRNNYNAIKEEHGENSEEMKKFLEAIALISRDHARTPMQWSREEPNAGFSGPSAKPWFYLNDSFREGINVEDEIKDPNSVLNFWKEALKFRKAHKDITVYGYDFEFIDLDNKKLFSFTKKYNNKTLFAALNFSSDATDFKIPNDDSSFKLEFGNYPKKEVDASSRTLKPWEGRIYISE
T2 sequence (P69328 25-640): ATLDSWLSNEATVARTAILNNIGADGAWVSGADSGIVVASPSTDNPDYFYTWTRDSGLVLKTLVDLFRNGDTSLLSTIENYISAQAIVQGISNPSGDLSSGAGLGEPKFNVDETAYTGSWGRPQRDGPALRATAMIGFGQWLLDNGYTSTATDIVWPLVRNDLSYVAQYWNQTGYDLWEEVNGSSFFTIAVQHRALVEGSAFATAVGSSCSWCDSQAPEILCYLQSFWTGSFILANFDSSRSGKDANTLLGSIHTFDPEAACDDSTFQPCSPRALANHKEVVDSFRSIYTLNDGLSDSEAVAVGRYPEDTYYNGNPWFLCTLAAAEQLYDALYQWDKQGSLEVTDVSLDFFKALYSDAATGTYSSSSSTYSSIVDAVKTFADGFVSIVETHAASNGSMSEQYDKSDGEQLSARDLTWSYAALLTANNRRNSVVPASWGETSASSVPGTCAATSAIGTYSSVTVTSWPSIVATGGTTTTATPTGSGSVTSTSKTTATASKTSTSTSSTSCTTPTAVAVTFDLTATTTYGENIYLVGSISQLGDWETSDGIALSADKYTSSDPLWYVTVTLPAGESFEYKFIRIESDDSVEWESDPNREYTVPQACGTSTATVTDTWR
T3 sequence (P00722 2-1024 limits assumed): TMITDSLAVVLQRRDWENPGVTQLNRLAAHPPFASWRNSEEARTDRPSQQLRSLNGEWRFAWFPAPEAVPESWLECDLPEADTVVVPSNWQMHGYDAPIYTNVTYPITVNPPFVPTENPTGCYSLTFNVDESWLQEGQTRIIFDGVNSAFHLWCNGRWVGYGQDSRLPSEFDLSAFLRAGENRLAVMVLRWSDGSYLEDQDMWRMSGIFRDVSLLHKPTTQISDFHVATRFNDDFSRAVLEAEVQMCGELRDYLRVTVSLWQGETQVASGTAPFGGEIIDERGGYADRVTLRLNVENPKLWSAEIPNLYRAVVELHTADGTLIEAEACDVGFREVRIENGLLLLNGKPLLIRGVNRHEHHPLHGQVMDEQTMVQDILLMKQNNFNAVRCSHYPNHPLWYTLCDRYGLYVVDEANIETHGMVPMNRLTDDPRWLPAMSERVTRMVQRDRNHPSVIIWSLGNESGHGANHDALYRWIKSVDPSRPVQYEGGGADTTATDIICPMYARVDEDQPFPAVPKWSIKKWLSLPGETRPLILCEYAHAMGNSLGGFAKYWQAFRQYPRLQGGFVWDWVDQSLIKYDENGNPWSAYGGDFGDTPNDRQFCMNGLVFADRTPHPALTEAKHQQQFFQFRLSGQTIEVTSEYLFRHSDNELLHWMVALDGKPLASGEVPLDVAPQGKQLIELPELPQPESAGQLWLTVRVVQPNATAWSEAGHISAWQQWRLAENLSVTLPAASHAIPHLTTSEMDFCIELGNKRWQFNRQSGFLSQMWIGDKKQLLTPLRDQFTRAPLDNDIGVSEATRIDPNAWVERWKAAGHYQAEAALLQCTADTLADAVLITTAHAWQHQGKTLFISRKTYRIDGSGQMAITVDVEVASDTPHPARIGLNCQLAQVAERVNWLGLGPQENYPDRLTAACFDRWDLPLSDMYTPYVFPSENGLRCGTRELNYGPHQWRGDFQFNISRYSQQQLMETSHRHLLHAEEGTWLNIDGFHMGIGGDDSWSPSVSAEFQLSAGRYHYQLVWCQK
T4 sequence (P53341 whole entry): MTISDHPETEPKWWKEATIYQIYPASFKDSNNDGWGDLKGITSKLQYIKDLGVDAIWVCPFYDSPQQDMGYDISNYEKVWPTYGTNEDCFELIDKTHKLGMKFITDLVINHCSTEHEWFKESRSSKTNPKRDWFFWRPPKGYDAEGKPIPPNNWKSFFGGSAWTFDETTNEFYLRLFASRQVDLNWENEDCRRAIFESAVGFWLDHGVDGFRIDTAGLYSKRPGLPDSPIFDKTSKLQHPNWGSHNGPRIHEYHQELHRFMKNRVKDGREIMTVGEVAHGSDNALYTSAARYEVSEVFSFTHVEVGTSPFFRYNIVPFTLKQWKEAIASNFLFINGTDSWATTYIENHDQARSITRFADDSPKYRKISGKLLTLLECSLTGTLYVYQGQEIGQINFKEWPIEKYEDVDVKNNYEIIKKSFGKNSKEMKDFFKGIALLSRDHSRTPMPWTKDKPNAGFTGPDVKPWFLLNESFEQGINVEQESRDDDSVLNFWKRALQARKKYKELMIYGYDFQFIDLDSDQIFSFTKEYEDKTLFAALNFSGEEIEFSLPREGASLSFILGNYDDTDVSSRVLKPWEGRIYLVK

## CCCCN=C1SCC2C(O)C(O)C(O)CN12 (stereo not drawn) [Compound 5, 1-Deoxy-6-thio-5-N,6-S-(N′-butyliminomethylidene)nojirimycin]
[1]
  Ki α-Manase: n.i.
[2]
  Ki: 1.1 ± 0.1 µM
[3]
  Ki α-Glcase3: n.i.
[4]
  Ki β-Galase: n.i.
[5]; mean ± SD
  Ki α-Glcase1: n.i.
[6]
  Ki α-Galase: n.i.
Isomaltase (α-Glcase2); [7]
  Ki α-Glcase2: n.i.

## OC1CN2C(=Nc3ccccc3)SCC2C(O)C1O (stereo not drawn) [Compound 6, 1-Deoxy-6-thio-5-N,6-S-(N′-phenyliminomethylidene)nojirimycin]
[1]
  Ki α-Manase: n.i.
[2]
  Ki: 48 ± 4 µM
[3]
  Ki: 44 ± 3 µM
[4]
  Ki β-Galase: n.i.
[5]; Ki α-Glcase1, mean ± SD
  Ki: 406 ± 20 µM
[6]
  Ki α-Galase: n.i.
Isomaltase (α-Glcase2); [8]
  Ki: 44 ± 3 µM
Isomaltase (α-Glcase2); [7]
  Ki α-Glcase2: n.i.

## CCCCCCCCN=C1SCC2C(O)C(O)C(O)CN12 [Compound 7, 5-N,6-S-(N′-Octyliminomethylidene)-6-thio-1-deoxy-L-idonojirimycin]
[1]
  Ki α-Manase: n.i.
[2]
  Ki: 3.9 ± 0.3 µM
[3]
  Ki α-Glcase3: n.i.
[4]
  Ki β-Galase: n.i.
[5]; mean ± SD
  Ki α-Glcase1: n.i.
[6]
  Ki: 504 ± 32 µM
Isomaltase (α-Glcase2); [7]
  Ki α-Glcase2: n.i.

## CCCCN=C1SCC2C(O)C(O)C(O)CN12 [Compound 8, 5-N,6-S-(N′-Butyliminomethylidene)-6-thio-1-deoxy-L-idonojirimycin]
[1]
  Ki α-Manase: n.i.
[2]
  Ki: 19 ± 9 µM
[3]
  Ki α-Glcase3: n.i.
[4]
  Ki β-Galase: n.i.
[5]; mean ± SD
  Ki α-Glcase1: n.i.
[6]
  Ki α-Galase: n.i.
Isomaltase (α-Glcase2); [7]
  Ki α-Glcase2: n.i.

## OC1CN2C(=Nc3ccccc3)SCC2C(O)C1O [Compound 9, 5-N,6-S-(N′-Phenyliminomethylidene)-6-thio-1-deoxy-L-idonojirimycin]
[1]
  Ki α-Manase: n.i.
[2]
  Ki: 309 ± 19 µM
[3]
  Ki α-Glcase3: n.i.
[4]
  Ki β-Galase: n.i.
[5]; Ki α-Glcase1, mean ± SD
  Ki: 262 ± 15 µM
[6]
  Ki: 772 ± 35 µM
Isomaltase (α-Glcase2); [7]
  Ki α-Glcase2: n.i.

## CCCCCCCCNC(=S)N1C[C@H](O)[C@@H](O)[C@H](O)[C@H]1CO [Compound 10, 1-Deoxy-N-(N′-octylthiocarbamoyl)nojirimicin]
[1]
  Ki α-Manase: n.i.
[2]
  Ki: 1.3 ± 0.1 µM
[3]
  Ki: 129 ± 10 µM
[4]
  Ki β-Galase: n.i.
[5]; Ki α-Glcase1, mean ± SD
  Ki: 481 ± 27 µM
[6]
  Ki α-Galase: n.i.
Isomaltase (α-Glcase2); [9]
  Ki: 116 ± 8 µM

## CCCCNC(=S)N1C[C@H](O)[C@@H](O)[C@H](O)[C@H]1CO [Compound 11, 1-Deoxy-N-(N′-butylthiocarbamoyl)nojirimicin]
[1]
  Ki α-Manase: n.i.
[2]
  Ki: 20 ± 2 µM
[3]
  Ki: 213 ± 18 µM
[4]
  Ki β-Galase: n.i.
[5]; mean ± SD, read-out: Ki α-Glcase1
  Ki: 568 ± 30 µM
[6]
  Ki: 847 ± 42 µM
Isomaltase (α-Glcase2); [9]
  Ki: 121 ± 9 µM

## OC[C@@H]1[C@@H](O)[C@H](O)[C@@H](O)CN1C(=S)Nc1ccccc1 [Compound 12, 1-Deoxy-N-(N′-phenylthiocarbamoyl)nojirimicin]
[1]
  Ki: 294 ± 18 µM
[2]
  Ki: 23 ± 3 µM
[3]
  Ki: 18 ± 2 µM
[4]
  Ki β-Galase: n.i.
[5]; Ki α-Glcase1, mean ± SD
  Ki: 60 ± 4 µM
[6]
  Ki: 122 ± 9 µM
Isomaltase (α-Glcase2); [8]
  Ki: 18 ± 2 µM
Isomaltase (α-Glcase2); [9]
  Ki: 10 ± 1 µM

## CCCCCCCCNC(=S)N1C[C@H](O)[C@@H](O)[C@H](O)[C@@H]1CO [Compound 13, N-(N′-Octylthiocarbamoyl)-1-deoxy-L-idonojirimycin]
[1]
  Ki α-Manase: n.i.
[2]
  Ki: 227 ± 13 µM
[3]
  Ki α-Glcase3: n.i.
[4]
  Ki β-Galase: n.i.
[5]; mean ± SD
  Ki α-Glcase1: n.i.
[6]
  Ki: 60 ± 15 µM
Isomaltase (α-Glcase2); [7]
  Ki α-Glcase2: n.i.

## CCCCNC(=S)N1C[C@H](O)[C@@H](O)[C@H](O)[C@@H]1CO [Compound 14, N-(N′-Butylthiocarbamoyl)-1-deoxy-L-idonojirimycin]
[1]
  Ki α-Manase: n.i.
[2]
  Ki: 51 ± 13 µM
[3]
  Ki α-Glcase3: n.i.
[4]
  Ki β-Galase: n.i.
[5]; mean ± SD
  Ki α-Glcase1: n.i.
[6]
  Ki α-Galase: n.i.
Isomaltase (α-Glcase2); [7]
  Ki α-Glcase2: n.i.

## OC[C@H]1[C@@H](O)[C@H](O)[C@@H](O)CN1C(=S)Nc1ccccc1 [Compound 15, N-(N′-Phenylthiocarbamoyl)-1-deoxy-L-idonojirimycin]
[1]
  Ki α-Manase: n.i.
[2]
  Ki: 294 ± 18 µM
[3]
  Ki: 271 ± 17 µM
[4]
  Ki β-Galase: n.i.
[5]; Ki α-Glcase1, mean ± SD
  Ki: 293 ± 18 µM
[6]
  Ki: 77 ± 16 µM
Isomaltase (α-Glcase2); [9]
  Ki: 443 ± 22 µM

— article PMC6017062, “Probing the Inhibitor versus Chaperone Properties of sp^2-Iminosugars towards Human β-Glucocerebrosidase: A Picomolar Chaperone for Gaucher Disease” (Molecules : A Journal of Synthetic Chemistry and Natural …, 2018)
